Measured values: patent publication US9273057B2 (Bristol-Myers Squibb Company, priority 2012, dated 2016)

Biological target: CK2A1 (CK2α/β) (Homo sapiens, UniProt P68400)
Experiment: CK2 kinase assay, CK2A1 (CK2α/β)
Assay type: biochemical
Settings: Table A; read-out: CK2A1 (CK2α/β) (IC50)

Chain of CK2A1 (CK2α/β) (P68400 whole entry, species assumed): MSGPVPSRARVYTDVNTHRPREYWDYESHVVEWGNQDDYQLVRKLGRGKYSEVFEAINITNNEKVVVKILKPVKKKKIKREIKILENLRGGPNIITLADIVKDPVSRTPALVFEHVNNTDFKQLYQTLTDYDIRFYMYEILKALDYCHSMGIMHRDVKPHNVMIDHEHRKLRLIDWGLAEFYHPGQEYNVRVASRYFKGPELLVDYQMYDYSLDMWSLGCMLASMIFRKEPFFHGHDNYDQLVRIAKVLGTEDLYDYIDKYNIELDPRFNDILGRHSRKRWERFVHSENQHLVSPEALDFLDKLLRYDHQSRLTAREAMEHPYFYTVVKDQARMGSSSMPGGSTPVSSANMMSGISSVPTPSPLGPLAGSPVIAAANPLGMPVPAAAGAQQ
Chain of CK2A1 (CK2α/β) (P67870 whole entry partner, species assumed): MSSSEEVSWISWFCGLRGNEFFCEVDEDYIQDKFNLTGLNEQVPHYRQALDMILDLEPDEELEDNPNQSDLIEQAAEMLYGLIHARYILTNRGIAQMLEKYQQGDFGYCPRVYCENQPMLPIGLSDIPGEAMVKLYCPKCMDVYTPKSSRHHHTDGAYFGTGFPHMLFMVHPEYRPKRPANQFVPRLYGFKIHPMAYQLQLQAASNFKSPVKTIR

Row | IC50 [nM] | Compound
1 | 0.66 | CN1CCN(C(=O)N[C@@H]2CCN(c3cc(C#N)cc(Nc4nc(NC5CC5)c5ncc(C#N)n5n4)c3Cl)C[C@H]2O)CC1 (racemic) [Example 182, (+/−)-N-((3R,4R)-1-(2-chloro-5-cyano-3-((7-cyano-4-(cyclopropylamino)imidazo[2,1-f][1,2,4]triazin-2-yl)amino)phenyl)-3-hydroxypiperidin-4-yl)-4-methylpiperazine-1-carboxamide]
2 | 0.64 | N#Cc1cc(Nc2nc(NC3CC3)c3ncc(C#N)n3n2)c(Cl)c(N2CC[C@@H](NC(=O)CN3CCOCC3)[C@H](O)C2)c1 (racemic) [Example 183, (+/−)-N-((3R,4R)-1-(2-chloro-5-cyano-3-((7-cyano-4-(cyclopropylamino)imidazo[2,1-f][1,2,4]triazin-2-yl)amino)phenyl)-3-hydroxypiperidin-4-yl)-2-morpholinoacetamide]
3 | 1.06 | CN[C@@H]1CCN(c2cc(C#N)cc(Nc3nc(NC4CC4)c4ncc(C#N)n4n3)c2Cl)C[C@H]1O (racemic) [Example 186, (+/−)-2-((2-chloro-5-cyano-3-((3R,4R)-3-hydroxy-4-(methylamino)piperidin-1-yl)phenyl)amino)-4-(cyclopropylamino)imidazo[2,1-f][1,2,4]triazine-7-carbonitrile]
4 | 0.94 | COC(=O)N(C)[C@@H]1CCN(c2cc(C#N)cc(Nc3nc(NC4CC4)c4ncc(C#N)n4n3)c2Cl)C[C@H]1O (racemic) [Example 187, (+/−)-methyl ((3R,4R)-1-(2-chloro-5-cyano-3-((7-cyano-4-(cyclopropylamino)imidazo[2,1-f][1,2,4]triazin-2-yl)amino)phenyl)-3-hydroxypiperidin-4-yl)(methyl)carbamate]
5 | 200 | CO[C@@H]1CN(c2cc(C#N)cc(Nc3nc(NC4CC4)c4ncc(C#N)n4n3)c2Cl)CC[C@H]1N (racemic) [Example 188, (+/−)-2-((3-((3R,4R)-4-amino-3-methoxypiperidin-1-yl)-2-chloro-5-cyanophenyl)amino)-4-(cyclopropylamino)imidazo[2,1-f][1,2,4]triazine-7-carbonitrile]
6 | 0.48 | CC(=O)N[C@@H]1CN(c2cc(C#N)cc(Nc3nc(NC4CC4)c4ncc(C#N)n4n3)c2Cl)CC[C@H]1O (racemic) [Example 190, (+/−)-N-((3R,4R)-1-(2-chloro-5-cyano-3-((7-cyano-4-(cyclopropylamino)imidazo[2,1-f][1,2,4]triazin-2-yl)amino)phenyl)-4-hydroxypiperidin-3-yl)acetamide]
7 | 0.66 | COC(=O)N[C@@H]1CN(c2cc(C#N)cc(Nc3nc(NC4CC4)c4ncc(C#N)n4n3)c2Cl)CC[C@H]1O (racemic) [Example 191, (+/−)-methyl ((3R,4R)-1-(2-chloro-5-cyano-3-((7-cyano-4-(cyclopropylamino)imidazo[2,1-f][1,2,4]triazin-2-yl)amino)phenyl)-4-hydroxypiperidin-3-yl)carbamate]
8 | 2.12 | COC(=O)N[C@@H]1CCN(c2cc(C#N)cc(Nc3nc(NC4CC4)c4ncc(C#N)n4n3)c2Cl)C[C@H]1OC(=O)[C@@H](N)C(C)C (racemic) [Example 192, (+/−)-(R)-(3S,4S)-1-(2-chloro-5-cyano-3-((7-cyano-4-(cyclopropylamino)imidazo[2,1-f][1,2,4]triazin-2-yl)amino)phenyl)-4-((methoxycarbonyl)amino)piperidin-3-yl 2-amino-3-methylbutanoate]
9 | 0.83 | COC(=O)Nc1cc(Nc2nc(NC3CC3)c3ncc(C#N)n3n2)c(Cl)c(N2CC[C@@H](NC(=O)OC)[C@@H](F)C2)c1 (racemic) [Example 202, (+/−) methyl (4-chloro-3-((7-cyano-4-(cyclopropylamino)imidazo[2,1-f][1,2,4]triazin-2-yl)amino)-5-((3S,4R)-3-fluoro-4-((methoxycarbonyl)amino)-1-piperidinyl)phenyl)carbamate]
10 | 2.22 | CC(O)CN1CCN(c2cc(C(F)F)cc(Nc3nc(NC4CC4)c4ncc(C#N)n4n3)c2Cl)CC1 (racemic) [Example 249, (+/−) 2-((2-chloro-5-(difluoromethyl)-3-(4-(2-hydroxypropyl)-1-piperazinyl)phenyl)amino)-4-(cyclopropylamino)imidazo[2,1-f][1,2,4]triazine-7-carbonitrile]

The remaining lines, values behind:

Row | Compound | IC50 [nM]
11 | N#Cc1cc(Nc2nc(NC3CC3)c3ncc(C#N)n3n2)c(Cl)c(N2CCC(N[C@@H]3CCCC[C@@H]3F)CC2)c1 (racemic) [Example 127, (+/−) 2-(2-chloro-5-cyano-3-(4-((1R,2R)-2-fluorocyclohexylamino)piperidin-1-yl)phenylamino)-4-(cyclopropylamino)imidazo [1,2-f][1,2,4]triazine-7-carbonitrile] | 0.62
12 | N#Cc1cc(Nc2nc(NC3CC3)c3ncc(C#N)n3n2)c(Cl)c(N2CCC(N[C@@H]3CCCC[C@H]3F)CC2)c1 (racemic) [Example 128, (+/−)2-(2-chloro-5-cyano-3-(4-((1R,2S)-2-fluorocyclohexylamino)piperidin-1-yl)phenylamino)-4-(cyclopropylamino)imidazo [1,2-f][1,2,4]triazine-7-carbonitrile] | 4.77
13 | N#Cc1cc(Nc2nc(NC3CC3)c3ncc(C#N)n3n2)c(Cl)c(N2CCC(N[C@H]3COC[C@@H]3O)CC2)c1 (racemic) [Example 135, (+/−) 2-((2-chloro-5-cyano-3-(4-(((3S,4R)-4-hydroxytetrahydro-3-furanyl)amino)-1-piperidinyl)phenyl)amino)-4-(cyclopropylamino)imidazo [2,1-f][1,2,4]triazine-7-carbonitrile] | 0.68
14 | CC(O)CNC1CCN(c2cc(C#N)cc(Nc3nc(NC4CC4)c4ncc(C#N)n4n3)c2Cl)CC1 (racemic) [Example 138, (+/−).2-(2-chloro-5-cyano-3-(4-(2-hydroxypropylamino)piperidin-1-yl)phenylamino)-4-(cyclopropylamino)imidazo [1,2-f][1,2,4]triazine-7-carbonitrile] | 0.64
15 | N#Cc1cc(Nc2nc(NC3CC3)c3ncc(C#N)n3n2)c(Cl)c(N2CCC(NCC(O)C(F)(F)F)CC2)c1 (racemic) [Example 139, (+/−) 2-((2-chloro-5-cyano-3-(4-((3,3,3-trifluoro-2-hydroxypropyl)amino)-1-piperidinyl)phenyl)amino)-4-(cyclopropylamino)imidazo [2,1-f][1,2,4]triazine-7-carbonitrile] | 0.45
16 | COCC(NC1CCN(c2cc(C#N)cc(Nc3nc(NC4CC4)c4ncc(C#N)n4n3)c2Cl)CC1)C1CC1 (racemic) [Example 142, (+/−) 2-((2-chloro-5-cyano-3-(4-((1-cyclopropyl-2-methoxyethyl)amino)-1-piperidinyl)phenyl)amino)-4-(cyclopropylamino)imidazo [2,1-f][1,2,4]triazine-7-carbonitrile] | 0.67
17 | N#Cc1cc(Nc2nc(NC3CC3)c3ncc(C#N)n3n2)c(Cl)c(N2CCC(NCC(O)CF)CC2)c1 (racemic) [Example 144, (+/−) 2-((2-chloro-5-cyano-3-(4-((3-fluoro-2-hydroxypropyl)amino)-1-piperidinyl)phenyl)amino)-4-(cyclopropylamino)imidazo [2,1-f][1,2,4]triazine-7-carbonitrile] | 1.11
18 | CC(C)(O)C1CN(C2CCN(c3cc(C#N)cc(Nc4nc(NC5CC5)c5ncc(C#N)n5n4)c3Cl)CC2)CCO1 (racemic) [Example 148, (+/−) 2-((2-chloro-5-cyano-3-(4-(2-(1-hydroxy-1-mcthylethyl)-4-morpholinyl)-1-piperidinyl)phenyl)amino)-4-(cyclopropylamino)imidazo [2,1-f][1,2,4]triazine-7-carbonitrile] | 1.03
19 | COC(=O)N[C@H]1CCN(C2CN(c3cc(C#N)cc(Nc4nc(NC5CC5)c5ncc(C#N)n5n4)c3Cl)C2)C[C@@H]1O (racemic) [Example 154, (+/−) methyl ((3S,4S)-1-(1-(2-chloro-5-cyano-3-((7-cyano-4-(cyclopropylamino)imidazo [2,1-f][1,2,4]triazin-2-yl)amino)phenyl)-3-azetidinyl)-3-hydroxy-4-piperidinyl)carbamate] | 0.4
20 | N#Cc1cc(Nc2nc(NC3CC3)c3ncc(C#N)n3n2)c(Cl)c(N2CC(N3CCC(O)C3)C2)c1 (racemic) [Example 159, (+/−) 2-((2-chloro-5-cyano-3-(3-(3-hydroxy-1-pyrrolidinyl)-1-azetidinyl)phenyl)amino)-4-(cyclopropylamino)imidazo [2,1-f][1,2,4]triazine-7-carbonitrile] | 0.48
21 | CC(C)(O)C1CN(C2CN(c3cc(C#N)cc(Nc4nc(NC5CC5)c5ncc(C#N)n5n4)c3Cl)C2)CCO1 (racemic) [Example 165, (+/−)2-(2-chloro-5-cyano-3-(3-(2-(2-hydroxypropan-2-yl)morpholino)azetidin-1-yl)phenylamino)-4-(cyclopropylamino)imidazo [1,2-f][1,2,4]triazine-7-carbonitrile] | 0.54
22 | CC(=O)N[C@@H]1CCN(c2cc(C#N)cc(Nc3nc(NC4CC4)c4ncc(C#N)n4n3)c2Cl)C[C@H]1O (racemic) [Example 172, (+/−)-N-((3R,4R)-1-(2-chloro-5-cyano-3-((7-cyano-4-(cyclopropylamino)imidazo[2,1-f][1,2,4]triazin-2-yl)amino)phenyl)-3-hydroxypiperidin-4-yl)acetamide] | 0.51
23 | N#Cc1cc(Nc2nc(NC3CC3)c3ncc(C#N)n3n2)c(Cl)c(N2CC[C@@H](NC(=O)OC3CN(C4COC4)C3)[C@H](O)C2)c1 (racemic) [Example 180, (+/−)-1-(oxetan-3-yl)azetidin-3-yl((3R,4R)-1-(2-chloro-5-cyano-3-((7-cyano-4-(cyclopropylamino)imidazo[2,1-f][1,2,4]triazin-2-yl)amino)phenyl)-3-hydroxypiperidin-4-yl)carbamate] | 0.51
24 | N#Cc1cc(Nc2nc(NC3CC3)c3ncc(C#N)n3n2)c(Cl)c(N2CC[C@@H](NC(=O)N3CCOCC3)[C@H](O)C2)c1 (racemic) [Example 181, (+/−)-N-((3R,4R)-1-(2-chloro-5-cyano-3-((7-cyano-4-(cyclopropylamino)imidazo[2,1-f][1,2,4]triazin-2-yl)amino)phenyl)-3-hydroxypiperidin-4-yl)morpholine-4-carboxamide] | 0.88
